Structures can show the parent of a compound that is named as a salt.
How the values were obtained:
[1] = target: T1, Cholesterol Ester Transfer Protein (CETP) (Homo sapiens, UniProt P11597); settings: repeated daily dosages (once a day) as low as 2.5 mg; cited from earlier work
T1 construct: CETP is a plasma protein secreted primarily by liver and adipose tissue; host or cells: endogenous plasma CETP of dosed clinical-study subjects
T1 sequence (P11597 18-493): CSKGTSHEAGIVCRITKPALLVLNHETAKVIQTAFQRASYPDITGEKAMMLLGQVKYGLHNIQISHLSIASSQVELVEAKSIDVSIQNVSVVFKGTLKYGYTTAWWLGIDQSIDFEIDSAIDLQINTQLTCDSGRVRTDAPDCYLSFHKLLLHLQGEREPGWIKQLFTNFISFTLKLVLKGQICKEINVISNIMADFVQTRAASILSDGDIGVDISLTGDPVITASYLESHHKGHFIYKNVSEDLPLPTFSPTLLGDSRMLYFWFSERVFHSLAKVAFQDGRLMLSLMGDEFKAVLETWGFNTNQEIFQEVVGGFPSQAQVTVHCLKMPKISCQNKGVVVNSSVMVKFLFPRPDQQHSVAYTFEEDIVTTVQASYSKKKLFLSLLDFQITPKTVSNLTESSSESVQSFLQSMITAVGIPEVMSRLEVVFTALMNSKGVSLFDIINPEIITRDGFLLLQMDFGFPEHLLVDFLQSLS

[2] = clinical studies; cited from earlier work
[3] = Solubility in water at 20° C.; format: physicochemical
From the text: Solubility is especially challenging with obicetrapib. […] It would be desirable to have a solid form of obicetrapib that would deliver a larger amount of obicetrapib.

[4] = Loss of crystallinity on drying, by XRPD (FIG. 18); format: physicochemical; settings: 48 hours at 55° C. at a pressure of 2 mbar
Method: Upon stress, crystalline obicetrapib HCl loses its crystallinity. In FIG. 18, pattern 2 reflects crystalline obicetrapib HCl subject to a mild drying treatment whereby surface solvent was removed and it can be seen that this compound is crystalline. By comparison, the sample whose x-ray powder diffraction was measured in pattern 1 was subject to a stronger drying treatment at 48 hours at 55° C. at a pressure of 2 mbar. […] The amorphous pattern, therefore, represents HCl obicetrapib which is not crystalline obicetrapib. It may be obicetrapib, but is believed to have HCl associated with the obicetrapib as a solvate and thus is HCl obicetrapib, but with a lower chloride content than typically found in the ranges found for crystalline obicetrapib HCl. In some embodiments, that chloride content is less than 0.1% by weight such as between about 0.01% and 0.1% by weight.
Diffraction patterns were measured using a Thermo Fisher Scientific ARL Equinox 1000 powder diffractometer. The diffractometer is equipped with a copper source and a germanium (111) monochromator providing monochromatic Cu Kα1 radiation, and a position sensitive gas-ionization detector.
Samples were measured in reflection mode using an A1 sample holder without any further preparation (i.e., grinding). […]

[5] = Moisture uptake / hygroscopicity; format: physicochemical
From the text: When exposed to relative humidities approaching 90%, moisture uptake has been measured to be typically less than about 5% for example. […] Other drawbacks commonly associated with manufacturing and using amorphous materials are similarly not present. For example, amorphous materials are often challenging to make chemically pure.

[6] = Physical stability at 70° C./75% relative humidity, by XRPD; format: physicochemical
From the text: FIG. 6 is a plot of x-ray powder diffraction pattern taken of crystalline obicetrapib hemicalcium, and FIG. 7 is a plot of x-ray powder diffraction patterns taken of crystalline obicetrapib hemicalcium under stress conditions. In FIG. 7, there are four diffraction patterns shown based on stability study set forth in Example 27. Pattern 1 is an x-ray powder diffraction pattern of a sample of amorphous obicetrapib hemicalcium. Pattern 2 is the x-ray powder diffraction pattern of a sample of crystalline obicetrapib hemicalcium. In pattern 3, the sample of crystalline obicetrapib hemicalcium was exposed to 70° C. at 75% relative humidity for one day. […] was taken before the sample was placed on stability.
XRPD was performed with Panalytical X'Pert^3 Powder diffractometer using an incident beam of Cu radiation produced using an Empyran tube, fine focused source, on a silicon zero-background holder. […] Approximately 5 to 10 mg of sample was placed on a silicon zero-background holder and flattened manually using an aluminum spatula to minimize difference in the overall sample height. The holder was then loaded on the instrument for analysis. The XRPD parameters used are listed in Table 10.
Stability study was conducted on crystalline and amorphous forms of obicetrapib at 70° C./75% relative humidity (RH). The solids were placed into a 4.0 ml glass vial without caps (open condition) and stored at 70° C./75% RH. […] The solids were analyzed by XRPD for physical stability and by HPLC for chemical purity. The sample collected at each time point was dissolved in methanol before HPLC analysis. In order to minimize the effect of potential analyte adsorption on the filter, the initial 0.5 mL of supernatant passing through the filter was discarded prior to collecting sample for HPLC analysis. Purity for each sample was determined based on peak area percent and compared to the sample at T=0.

SMILES: CCOC(=O)N1c2ccc(C(F)(F)F)cc2[C@@H](N(Cc2cc(C(F)(F)F)cc(C(F)(F)F)c2)c2ncc(OCCCC(=O)O)cn2)C[C@H]1CC [obicetrapib, (2R,4S)-4-{[3,5 bis(trifluoromethyl)benzyl]-[5-(3-carboxypropoxy)pyrimidin-2-yl]amino}-2-ethyl-6-trifluoromethyl-3,4-dihydro-2H-quinoline-1-carboxylic acid ethyl ester]
- CETP inhibition [1]: near complete CETP inhibition
- serious side effects [2]: does not lead to serious side effects
- solubility in water [3]: less than 0.1 mg/mL

SMILES: CCOC(=O)N1c2ccc(C(F)(F)F)cc2[C@@H](N(Cc2cc(C(F)(F)F)cc(C(F)(F)F)c2)c2ncc(OCCCC(=O)O)cn2)C[C@H]1CC [crystalline obicetrapib HCl, (2R,4S)-4-{[3,5-bis(trifluoromethyl)benzyl]-[5-(3-carboxypropoxy)pyrimidin-2-yl]amino}-2-ethyl-6-trifluoromethyl-3,4-dihydro-2H-quinoline-1-carboxylic acid ethyl ester hydrochloride]
- solid form after drying (XRPD) [4]: changed the material from crystalline to amorphous
- hygroscopicity [5]: hygroscopic

SMILES: CCOC(=O)N1c2ccc(C(F)(F)F)cc2[C@@H](N(Cc2cc(C(F)(F)F)cc(C(F)(F)F)c2)c2ncc(OCCCC(=O)[O-])cn2)C[C@H]1CC.CCOC(=O)N1c2ccc(C(F)(F)F)cc2[C@@H](N(Cc2cc(C(F)(F)F)cc(C(F)(F)F)c2)c2ncc(OCCCC(=O)[O-])cn2)C[C@H]1CC.[Ca+2] [Crystalline obicetrapib hemicalcium, reference compound]
- physical stability of solid form (XRPD) ([6]; 7 days, open vial): the result remains the same
- physical stability of solid form (XRPD) ([6]; one day, open vial): near total loss of crystallinity

SMILES: CCOC(=O)N1c2ccc(C(F)(F)F)cc2[C@@H](N(Cc2cc(C(F)(F)F)cc(C(F)(F)F)c2)c2ncc(OCCCC(=O)O)cn2)C[C@H]1CC [Amorphous obicetrapib hemicalcium]
- physical stability of solid form (XRPD) ([6]; 7 days, open vial): remained amorphous
- physical stability of solid form (XRPD) ([6]; 14 days): remained amorphous

Source: patent US12378221B2, “Salts of obicetrapib and processes for their manufacture and intermediates thereof” (NewAmsterdam Pharma B.V., priority 2022, dated 2025)
